These are literature values, as cited in US20240156808A1, “Compositions and methods to improve the therapeutic benefit of suboptimally chemical compounds and biological therapies including substituted camptothecins such as irinotecan and topotecan for the treatment of benign and neoplastic hyperproliferative disease conditions, infections, inflammatory and …” (Edison Oncology, priority 2021, published 2024).

For one data set, the target named is T1, CES2 (Homo sapiens, UniProt O00748).
T1 sequence (O00748 27-559): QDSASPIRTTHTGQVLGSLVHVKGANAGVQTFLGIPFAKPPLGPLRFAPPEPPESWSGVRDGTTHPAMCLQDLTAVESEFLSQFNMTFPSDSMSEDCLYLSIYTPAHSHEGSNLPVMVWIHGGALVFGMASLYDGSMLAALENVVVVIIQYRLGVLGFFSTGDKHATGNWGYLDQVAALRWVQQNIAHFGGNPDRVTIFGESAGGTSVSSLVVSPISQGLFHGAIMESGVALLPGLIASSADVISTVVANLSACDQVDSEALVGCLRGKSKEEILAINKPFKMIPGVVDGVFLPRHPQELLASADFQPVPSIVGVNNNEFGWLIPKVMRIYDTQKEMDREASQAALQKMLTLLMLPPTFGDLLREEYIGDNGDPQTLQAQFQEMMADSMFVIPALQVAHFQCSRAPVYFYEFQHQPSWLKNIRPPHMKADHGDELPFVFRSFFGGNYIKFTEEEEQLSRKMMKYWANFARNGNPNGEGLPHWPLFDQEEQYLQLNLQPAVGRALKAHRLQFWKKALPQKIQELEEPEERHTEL
The conditions noted are these: CES2 versus CES1.

For the compound `CCc1c2c(nc3ccc(O)cc13)-c1cc3c(c(=O)n1C2)COC(=O)[C@]3(O)CC` [SN-38], the elimination half-life (SN-38) was 6 to 32 h. For the same compound, where the note is “after infusion”, the “time to peak plasma concentration” value is “two”. Also, the distribution half-life result (in vivo) is reported as “about 8 minutes”.

As to `CCc1c2c(nc3ccc(OC(=O)N4CCC(N5CCCCC5)CC4)cc13)-c1cc3c(c(=O)n1C2)COC(=O)[C@]3(O)CC` [irinotecan, (S)-4,11-diethyl-3,4,12,14-tetrahydro-4-hydroxy-3,14-dioxo1H-pyrano[3′,4′:6,7]-indolizino[1,2-b]quinolin-9-yl-[1,4′bipiperidine]-1′-carboxylate], the “affinity of CES2 for irinotecan relative to CES1” value on CES2 is recorded as 12.5 fold. Moreover, the “fraction of irinotecan hydrolyzed to SN-38” value (in the liver by CES1 and CES2, also in plasma by butyrylcholinesterase) is given as 2-5%.
